What all share (format): cell-based
One test relates to 3T3-L1 cells. The test is described as follows: Adipogenic differentiation by oil red O staining in inducible E4orf1 stable cell line. To be noted: 3T3-L1 cells expressing Ad36 E4orf1 on doxycycline; 0, 1, or 5 M of 2ATD; up to nine days. The procedure:
FIG. 7A-F are photomicrographs of 3T3-L1 cells. […] FIGS. 7D-F show 3T3-L1 cells that express Ad36 E4orf1 when exposed to doxycycline, treated with 0, 1, or 5 M, respectively, of 2ATD—a specific inhibitor of AKT1 signalling.
3T3-L1 cells that express Ad36 E4orf1 when exposed to doxycycline (10) were generated. […] Confluent E4orf1 and pTRE cells were exposed to adipogenic media to induce differentiation. In addition the cells were treated with 0, 1 or 5 M of 2ATD—a specific inhibitor of AKT1 signalling. This media was refreshed every two days for up to nine days. Adipogenic differentiation was verified by oil red O staining (FIGS. 7A-F).

Test [1] deals with PPARγ. The test is described as follows: PPARγ expression by qRT-PCR in E4orf1 and pTRE cells. The procedure: (§1) Confluent E4orf1 and pTRE cells were exposed to adipogenic media to induce differentiation. In addition the cells were treated with 0 or 5 μM of 2ATD—a specific inhibitor of AKT1 signalling. This media was refreshed every two days for up to nine days. Basal and insulin stimulated 2DG uptake was determined 24 hours post induction in the presence of 1000 ng/ml of doxycycline expression of PPARγ and adiponectin—markers of adipogenesis, by qRT-PCR.

The subject of another test is adiponectin. The test is described as follows: Adiponectin expression by qRT-PCR in E4orf1 and pTRE cells. The procedure: as §1
(Quantitative PCR measures a nucleic acid by following its amplification.)

The test system of test [2] is PPARγ. The test can be described thus: PPARγ protein abundance in 3T3-L1 adipocytes. The settings on record: 0, 1 or 5 μM ATD. The procedure: FIG. 10 is a graph showing ATD inhibits PPARγ protein abundance. 3T3-L1 adipocytes were transfected with a null vector (V5), and exposed to 10 μM TZD, or transfected with a plasmid expressing E4orf1 protein. Both groups were exposed to […] ATD.
(§2) 3T3-L1 adipocytes were transfected with a null vector and exposed to 10 μM TZD, or transfected with a plasmid expressing E4orf1 protein. Both groups were exposed to 0, 1 or 5 μM ATD. […] The glucose uptake in adipocytes was PPARγ-dependent in the presence of TZD, but not when induced by E4orf1. Thus, by down-regulating AKT-1 signaling E4orf1 can be used to enhance glucose uptake by adipocytes, without further increasing lipid accumulation.

For another test, the system named is 3T3-L1 adipocytes. The test can be described thus: Glucose uptake in 3T3-L1 adipocytes exposed to ATD. To be noted: null vector, 10 μM TZD; increasing concentration of ATD (0, 1 or 5 μM). The procedure:
as §2

Test [3] deals with E4orf1 and pTRE inducible stable cells. The test can be described thus: Basal and insulin stimulated glucose (2DG) uptake in presence of 2-ATD. The procedure:
E4orf1 and pTRE inducible stable cells were exposed to adipogenic media to induce differentiation and treated with 0 or 5 μM of 2-ATD. Basal and insulin stimulated 2DG was determined 24 hours after exposure to doxycycline (1000 ng/ml), in presence or absence of insulin (*p<0.05).

Setting [4] is: E4orf1 expressing cells, 0 or 5 μM of 2ATD.
The mark [5] stands for this setting: effect of E4orf1 expression (doxycycline 1000 ng/ml), qRT-PCR.

The source of these data is patent US9433659B2, “Enhanced glycemic control using Ad36E4orf1 and AKT1 inhibitor” (priority 2012, dated 2016).

On to `Nc1nncs1` [2-ATD, 2-Aminothiadiazole], for which, in the test with 3T3-L1 cells, the “adipogenesis and lipid accumulation (oil red O staining)” value is “blocked adipogenesis and lipid accumulation”. The PPARγ expression entry in the test with PPARγ [1] (setting [4]) was “significantly reduced PPARγ expression”; with PPARγ [1] (pTRE cells, 0 or 5 μM of 2ATD), “significantly reduced PPARγ expression”. In addition, the adiponectin expression entry in the test on adiponectin (setting [4]) was “significantly reduced”. For the same molecule, in the test with PPARγ [2], the PPARγ protein abundance result was “reduced PPARγ protein abundance”. Moreover, in the test with 3T3-L1 adipocytes, the glucose uptake result is reported as “significantly reduced glucose uptake”.

B1: E4orf1: Adenovirus-36 E4orf1 protein, SEQ ID NO:2; expressed in 3T3-L1 cells by doxycycline induction or plasmid (protein, listed as Human adenovirus)
chain: MAESLYAFIDSPGGIAPVQEGASNRYIFFCPESFHIPPHGVILLHLRVSVLVPTGYQGRFMALNDYHARGILTQSDVIFAGRRHDLSVLLFNHTDRFLYVREGHPVGTLLLERVIFPSVRIATLV
As for B1, the PPARγ expression entry with PPARγ [1] (setting [5]) is “significantly increased the expression of PPARγ and adiponectin”. The adiponectin expression entry in the test with adiponectin (setting [5]) is “significantly increased the expression of PPARγ and adiponectin”. In addition, the “glucose uptake (2DG) despite 2-ATD treatment” value in test [3] (E4orf1 expressing cells treated with 5 μM of 2-ATD) was “continued to show significantly greater glucose uptake”. Also, the “glucose uptake (2DG)” value in test [3] (E4orf1 expression compared to pTRE, 24 hours after doxycycline (1000 ng/ml), basal and insulin stimulated) is on record as “increased glucose uptake compared to that in pTRE”.
